We go through 20 compounds from patent publication US7786141B2 (Vertex Pharmaceuticals Incorporated, priority 2004, dated 2010).

Where two headings read alike, the source gives them in different places. Bounds are passed on as bounds.

The target of assay [1] is T1, M1 muscarinic receptor (Homo sapiens, UniProt P11229).
T1 construct: expressed in transfected cells; host or cells: CHO (M1-CHO)
T1 sequence (P11229 1-460): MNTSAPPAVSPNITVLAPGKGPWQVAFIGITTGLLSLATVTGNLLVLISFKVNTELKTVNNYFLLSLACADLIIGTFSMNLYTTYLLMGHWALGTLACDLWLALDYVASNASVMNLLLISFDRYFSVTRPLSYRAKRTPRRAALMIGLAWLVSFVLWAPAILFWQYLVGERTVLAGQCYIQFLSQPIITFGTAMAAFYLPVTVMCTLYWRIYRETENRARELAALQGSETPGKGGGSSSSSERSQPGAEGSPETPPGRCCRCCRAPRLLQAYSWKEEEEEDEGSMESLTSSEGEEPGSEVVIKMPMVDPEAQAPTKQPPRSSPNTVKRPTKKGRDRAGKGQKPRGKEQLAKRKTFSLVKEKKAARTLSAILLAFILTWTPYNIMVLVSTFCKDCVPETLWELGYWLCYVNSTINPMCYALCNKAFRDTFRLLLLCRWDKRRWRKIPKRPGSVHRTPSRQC
The experiment in a line: Functional mobilization of intracellular calcium (FLIPR) in M1-CHO cells. The class given is cell-based. An outline of the steps:
(§1)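 Steps: seed M1- or M4-CHO cells 18-24 hrs ahead; load calcium dye with 1 mM probenecid; add test compound (0.5% DMSO final), either alone for agonism or 15 min before EC80 carbachol for inhibition; record FLIPR fluorescence for 60 sec.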
A general note: Calcium flux is commonly read through the fluorescence of an indicator in the cells.

Assay [2] deals with T2, M4 muscarinic receptor (Homo sapiens, UniProt P08173).
T2 construct: expressed in transfected cells; host or cells: CHO (M4-CHO)
T2 sequence (P08173 1-479): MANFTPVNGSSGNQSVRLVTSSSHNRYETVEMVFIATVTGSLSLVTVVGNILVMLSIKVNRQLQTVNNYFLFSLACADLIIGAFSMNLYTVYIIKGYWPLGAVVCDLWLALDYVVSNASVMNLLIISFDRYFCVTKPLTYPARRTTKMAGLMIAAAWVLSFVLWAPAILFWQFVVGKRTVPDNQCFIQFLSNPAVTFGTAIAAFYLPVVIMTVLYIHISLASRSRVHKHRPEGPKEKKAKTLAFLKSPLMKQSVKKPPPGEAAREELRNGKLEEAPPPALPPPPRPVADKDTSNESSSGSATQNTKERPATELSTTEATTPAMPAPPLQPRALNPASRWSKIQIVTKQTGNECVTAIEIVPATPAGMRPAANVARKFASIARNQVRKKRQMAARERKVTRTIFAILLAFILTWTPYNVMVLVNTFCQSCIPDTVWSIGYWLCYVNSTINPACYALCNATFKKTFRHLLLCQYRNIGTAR
The experiment in a line: Functional mobilization of intracellular calcium (FLIPR) in M4-CHO cells. The class given is cell-based. An outline of the steps:
as §1

[3] abbreviates: Table 4, 100% efficacy is the maximum response obtained with the Carbachol control.
The mark [4] stands for this setting: Table 4, modulating M1 receptor.
Setting [5] is: Table 4, modulating M4 receptor.
Setting [6] is: Table 4, M1 receptor, calcium mobilization (FLIPR).
The mark [7] stands for this setting: Table 4, M4 receptor, calcium mobilization (FLIPR).
Where [8] appears, read: M1 receptor, calcium mobilization.
Where [9] appears, read: M1 receptor, calcium mobilization, read-out: M1 Efficacy.
Setting [10] is: M4 receptor, calcium mobilization.
Setting [11] is: M4 receptor, calcium mobilization, read-out: M4 Efficacy.

Take `CN(C)C(=O)N1CC2(CCN(C3CCN(C(=O)c4ccco4)CC3)CC2)c2cc(F)ccc21` [compound 435]: the Emax in assay [1] (setting [3]) and in assay [2] (setting [3]) was 25 to 100% in each case. In addition, in assay [1] (setting [4]), the “M1 Activity” value is listed as “xxx (activity was measured to be less than 2.0 μM)”. The “M4 Activity” value in assay [2] (setting [5]) is “xxx (activity was measured to be less than 2.0 μM)”.

With `CC(=O)N[C@H]1CC2(CCN(C3CCCC3C)CC2)c2ccccc21` (some centres unmarked) [compound 830], the Emax in assay [1] (setting [3]) and in assay [2] (setting [3]) was 25 to 100% throughout. Also, the “M1 Activity” value in assay [1] (setting [6]) is reported as “x (activity was measured to be greater than 5.0 μM)”. Further, the “M4 Activity” value in assay [2] (setting [7]) was “xx (activity was measured to be between 2.0 μM and 5.0 μM)”.

Turning to `CN(C)C(=O)N1CC2(CCN(C3CCN(C(=O)O[C@H]4CCOC4)CC3)CC2)c2cc(F)ccc21` [compound 120], the “M1 Activity” value in assay [1] (setting [8]) is “xx (activity was measured to be between 0.1 μM and 1.0 μM)”. Also, the Emax in assay [1] (setting [9]) and in assay [2] (setting [11]) was below 65% each time. The “M4 Activity” value in assay [2] (setting [10]) was “x (activity was measured to be greater than 1.0 μM)”.

Turning to `COc1cc2c(cc1OC)C1(CCN(CC3CCCCC3)CC1)C[C@@H]2NC(C)=O` [compound 511], the Emax in assay [1] (setting [3]) and in assay [2] (setting [3]) was below 25% each time. The “M1 Activity” value in assay [1] (setting [4]) was “x (activity was measured to be greater than 5.0 μM)”. Also, the “M4 Activity” value in assay [2] (setting [5]) is “x (activity was measured to be greater than 5.0 μM)”.

For the compound `CC(=O)N1CC2(CCN(CC3CCN(C(=O)O[C@@H]4CCOC4)CC3)CC2)c2cc(C)ccc21` [compound 550], the Emax in assay [1] (setting [3]) and in assay [2] (setting [3]) was below 25% throughout. The “M1 Activity” value in assay [1] (setting [4]) was “x (activity was measured to be greater than 5.0 μM)”. Moreover, in assay [2] (setting [5]), the “M4 Activity” value is given as “x (activity was measured to be greater than 5.0 μM)”.

Turning to `OC1CC2(CCN([C@@H]3C[C@H]4CC[C@@H]3C4)CC2)c2ccccc21` (some centres unmarked) [compound 536], the Emax in assay [1] (setting [3]) and in assay [2] (setting [3]) was 25 to 100% throughout. Also, the “M1 Activity” value in assay [1] (setting [4]) is listed as “xxx (activity was measured to be less than 2.0 μM)”. Further, the “M4 Activity” value in assay [2] (setting [5]) is on record as “xxx (activity was measured to be less than 2.0 μM)”.

Consider `CC(=O)N1CC2(CCN(C3CCN(c4nccs4)CC3)CC2)c2cc(F)ccc21` [compound 976], for which the Emax in assay [1] (setting [3]) and in assay [2] (setting [3]) was 25 to 100% throughout. Also, the “M1 Activity” value in assay [1] (setting [6]) is “xxx (activity was measured to be less than 2.0 μM)”. In addition, in assay [2] (setting [7]), the “M4 Activity” value is “xxx (activity was measured to be less than 2.0 μM)”.

In the case of `CCCOC(=O)N1CC[C@@H](CN2CCC3(CC2)CN(C(=O)N(C)C)c2ccc(F)cc23)C1` [compound 706], the Emax in assay [1] (setting [3]) and in assay [2] (setting [3]) was 25 to 100% in each case. Moreover, the “M1 Activity” value in assay [1] (setting [4]) is “xxx (activity was measured to be less than 2.0 μM)”. The “M4 Activity” value in assay [2] (setting [5]) is on record as “xxx (activity was measured to be less than 2.0 μM)”.

Take `CCOC(=O)N1CCC(N2CCC3(CC2)CN(C(=O)C(=O)CC)c2ccc(F)cc23)CC1` [compound 522]: the Emax in assay [1] (setting [3]) was above 100%; in assay [2] (setting [3]), 25 to 100%. The “M1 Activity” value in assay [1] (setting [4]) is on record as “xxx (activity was measured to be less than 2.0 μM)”. The “M4 Activity” value in assay [2] (setting [5]) was “xxx (activity was measured to be less than 2.0 μM)”.

Consider `Fc1ccc2c(c1)C1(CCN(C[C@H]3C[C@H]4CC[C@H]3C4)CC1)CO2` [compound 207], for which, in assay [1] (setting [8]), the “M1 Activity” value is “xx (activity was measured to be between 0.1 μM and 1.0 μM)”. Besides, the Emax is 65 to 85% in assay [1] (setting [9]) and below 65% in assay [2] (setting [11]). For the same compound, in assay [2] (setting [10]), the “M4 Activity” value is listed as “x (activity was measured to be greater than 1.0 μM)”.

As to `O=C1CC2(CCN(CC3CC4C=CC3C4)CC2)c2ccc(Cl)cc21` (centres unmarked) [compound 915], the Emax in assay [1] (setting [3]) and in assay [2] (setting [3]) was 25 to 100% each time. Besides, the “M1 Activity” value in assay [1] (setting [6]) is recorded as “x (activity was measured to be greater than 5.0 μM)”. For the same compound, the “M4 Activity” value in assay [2] (setting [7]) is “x (activity was measured to be greater than 5.0 μM)”.

Turning to `COc1cc2c(cc1OC)C1(CCN(C3CCCCCCCCCCC3)CC1)C[C@@H]2NC(C)=O` [compound 599], the Emax in assay [1] (setting [3]) and in assay [2] (setting [3]) was 25 to 100% each time. For the same compound, the “M1 Activity” value in assay [1] (setting [4]) is reported as “x (activity was measured to be greater than 5.0 μM)”. The “M4 Activity” value in assay [2] (setting [5]) was “x (activity was measured to be greater than 5.0 μM)”.

On to `CCOC(=O)N1C2CCC1CC(N1CCC3(CC1)CN(C(=O)Oc1ccc(F)cc1)c1ccc(F)cc13)C2` (centres unmarked) [compound 298], for which the “M1 Activity” value in assay [1] (setting [8]) was “x (activity was measured to be greater than 1.0 μM)”. The Emax in assay [1] (setting [9]) was below 65%; in assay [2] (setting [11]), 65 to 85%. For the same compound, the “M4 Activity” value in assay [2] (setting [10]) is “x (activity was measured to be greater than 1.0 μM)”.

As to `COCCN1CC2(CCN(C3CCCCC3)CC2)c2cc(F)ccc21` [compound 925], the Emax in assay [1] (setting [3]) and in assay [2] (setting [3]) was 25 to 100% each time. Further, the “M1 Activity” value in assay [1] (setting [6]) is “xxx (activity was measured to be less than 2.0 μM)”. Moreover, in assay [2] (setting [7]), the “M4 Activity” value is “xxx (activity was measured to be less than 2.0 μM)”.

With `CCOC(=O)N1CC[C@@H](CN2CCC3(CC2)CN(C(=O)N(C)C)c2ccc(F)cc23)C1` [compound 974], the Emax in assay [1] (setting [3]) and in assay [2] (setting [3]) was 25 to 100% each time. The “M1 Activity” value in assay [1] (setting [6]) is on record as “xxx (activity was measured to be less than 2.0 μM)”. The “M4 Activity” value in assay [2] (setting [7]) was “xxx (activity was measured to be less than 2.0 μM)”.

With `O=C(O[C@@H]1CCOC1)N1C2CCC1CC(N1CCC3(CC1)C(=O)Nc1ccccc13)C2` (some centres unmarked) [compound 336], in assay [1] (setting [8]), the “M1 Activity” value is reported as “x (activity was measured to be greater than 1.0 μM)”. The Emax in assay [1] (setting [9]) and in assay [2] (setting [11]) was below 65% in each case. For the same compound, in assay [2] (setting [10]), the “M4 Activity” value is given as “x (activity was measured to be greater than 1.0 μM)”.

Regarding `CCCOC(=O)N1CC[C@@H](CN2CCC3(CC2)CN(C(C)=O)c2ccccc23)C1` [compound 478], the Emax in assay [1] (setting [3]) and in assay [2] (setting [3]) was below 25% each time. Also, in assay [1] (setting [4]), the “M1 Activity” value is on record as “x (activity was measured to be greater than 5.0 μM)”. Further, in assay [2] (setting [5]), the “M4 Activity” value was “x (activity was measured to be greater than 5.0 μM)”.

Take `C#CCCOC(=O)N1CC[C@@H](CN2CCC3(CC2)CN(C(C)=O)c2ccccc23)C1` [compound 1013]: the Emax in assay [1] (setting [3]) and in assay [2] (setting [3]) was below 25% each time. Further, the “M1 Activity” value in assay [1] (setting [6]) is listed as “x (activity was measured to be greater than 5.0 μM)”. Further, the “M4 Activity” value in assay [2] (setting [7]) was “x (activity was measured to be greater than 5.0 μM)”.

`CCC(=O)N[C@H]1CC2(CCN([C@@H]3C[C@@H]4CC[C@@H]3C4)CC2)c2ccccc21` [compound 490]: the results for the Emax in assay [1] (setting [3]) and in assay [2] (setting [3]) were 25 to 100% and above 100%, respectively. In assay [1] (setting [4]), the “M1 Activity” value is given as “x (activity was measured to be greater than 5.0 μM)”. For the same compound, the “M4 Activity” value in assay [2] (setting [5]) is listed as “xxx (activity was measured to be less than 2.0 μM)”.

For the compound `CC(=O)N[C@H]1CC2(CCN(C3C4CC5CC(C4)CC3C5)CC2)c2ccccc21` (some centres unmarked) [compound 4], the “M1 Activity” value in assay [1] (setting [8]) is listed as “xxx (activity was measured to be less than 0.1 μM)”. For the same compound, the Emax in assay [1] (setting [9]) and in assay [2] (setting [11]) was below 65% throughout. The “M4 Activity” value in assay [2] (setting [10]) is on record as “x (activity was measured to be greater than 1.0 μM)”.
